Assay results reported in publication PMC4076210, “Discovery of Novel AKT Inhibitors with Enhanced Anti-Tumor Effects in Combination with the MEK Inhibitor” (PLoS ONE, 2014).
pIC50: −log10 of the molar value.

What was measured:
[1] = target: T1, CDK3/cyclinE(h) (Homo sapiens, UniProt Q00526); assay: Kinase panel; type: biochemical
T1 construct: purchased Millipore KinaseProfiler

[2] = target: T2, DDR2(h) (Homo sapiens, UniProt Q16832); assay: Kinase panel; type: biochemical
T2 construct: purchased Millipore KinaseProfiler
T2 sequence (Q16832 22-855): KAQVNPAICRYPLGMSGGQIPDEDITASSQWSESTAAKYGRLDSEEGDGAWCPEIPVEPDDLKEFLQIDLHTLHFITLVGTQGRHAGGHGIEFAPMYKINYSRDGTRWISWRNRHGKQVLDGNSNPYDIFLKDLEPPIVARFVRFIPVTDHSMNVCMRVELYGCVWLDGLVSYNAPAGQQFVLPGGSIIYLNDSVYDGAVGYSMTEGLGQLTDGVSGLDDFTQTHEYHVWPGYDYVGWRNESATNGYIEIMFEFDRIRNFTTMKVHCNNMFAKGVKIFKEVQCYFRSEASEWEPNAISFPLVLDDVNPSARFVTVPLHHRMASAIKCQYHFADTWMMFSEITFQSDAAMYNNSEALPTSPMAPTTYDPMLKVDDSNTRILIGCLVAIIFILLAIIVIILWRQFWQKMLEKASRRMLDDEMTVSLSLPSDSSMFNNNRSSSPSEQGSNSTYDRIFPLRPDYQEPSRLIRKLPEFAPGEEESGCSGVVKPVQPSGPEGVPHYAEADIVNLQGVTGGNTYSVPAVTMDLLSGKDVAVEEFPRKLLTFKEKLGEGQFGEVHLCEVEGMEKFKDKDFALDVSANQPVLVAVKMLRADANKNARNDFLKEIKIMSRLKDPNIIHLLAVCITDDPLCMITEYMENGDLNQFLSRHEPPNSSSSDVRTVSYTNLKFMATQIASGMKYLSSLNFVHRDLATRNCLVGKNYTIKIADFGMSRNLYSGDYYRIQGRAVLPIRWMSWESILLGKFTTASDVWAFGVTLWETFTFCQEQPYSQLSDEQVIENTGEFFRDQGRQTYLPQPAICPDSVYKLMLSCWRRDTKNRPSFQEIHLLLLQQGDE

[3] = target: T3, EGFR(h) (Homo sapiens, UniProt P00533); assay: Kinase panel; type: biochemical
T3 construct: purchased Millipore KinaseProfiler

[4] = system: hematological tumor cell lines; assay: 3-day proliferation assay (CellTiter-Glo); type: cell-based, human; details: for pIC50: Homo sapiens
Experimental: Various tumor cell lines were obtained from different sources including; the American Type Cell Culture Collection, the Developmental Therapeutics Program, the National Cancer Institute, the German Resource Center for Biological Material and the European Collection of Animal Cell Cultures. Cell lines were typically grown in […] containing 10% FBS. Some cell lines were grown in media specified by the vendor. A 3-day proliferation assay using CellTiter-Glo (CTG, Promega) was performed to measure the growth inhibition by the compounds at 0–30 µM. Cell growth was determined relative to untreated (DMSO) controls. EC50's were calculated from inhibition curves using a 4- or 6-parameter fitting algorithm in the Assay Client application.

T3 sequence (P00533 25-1210): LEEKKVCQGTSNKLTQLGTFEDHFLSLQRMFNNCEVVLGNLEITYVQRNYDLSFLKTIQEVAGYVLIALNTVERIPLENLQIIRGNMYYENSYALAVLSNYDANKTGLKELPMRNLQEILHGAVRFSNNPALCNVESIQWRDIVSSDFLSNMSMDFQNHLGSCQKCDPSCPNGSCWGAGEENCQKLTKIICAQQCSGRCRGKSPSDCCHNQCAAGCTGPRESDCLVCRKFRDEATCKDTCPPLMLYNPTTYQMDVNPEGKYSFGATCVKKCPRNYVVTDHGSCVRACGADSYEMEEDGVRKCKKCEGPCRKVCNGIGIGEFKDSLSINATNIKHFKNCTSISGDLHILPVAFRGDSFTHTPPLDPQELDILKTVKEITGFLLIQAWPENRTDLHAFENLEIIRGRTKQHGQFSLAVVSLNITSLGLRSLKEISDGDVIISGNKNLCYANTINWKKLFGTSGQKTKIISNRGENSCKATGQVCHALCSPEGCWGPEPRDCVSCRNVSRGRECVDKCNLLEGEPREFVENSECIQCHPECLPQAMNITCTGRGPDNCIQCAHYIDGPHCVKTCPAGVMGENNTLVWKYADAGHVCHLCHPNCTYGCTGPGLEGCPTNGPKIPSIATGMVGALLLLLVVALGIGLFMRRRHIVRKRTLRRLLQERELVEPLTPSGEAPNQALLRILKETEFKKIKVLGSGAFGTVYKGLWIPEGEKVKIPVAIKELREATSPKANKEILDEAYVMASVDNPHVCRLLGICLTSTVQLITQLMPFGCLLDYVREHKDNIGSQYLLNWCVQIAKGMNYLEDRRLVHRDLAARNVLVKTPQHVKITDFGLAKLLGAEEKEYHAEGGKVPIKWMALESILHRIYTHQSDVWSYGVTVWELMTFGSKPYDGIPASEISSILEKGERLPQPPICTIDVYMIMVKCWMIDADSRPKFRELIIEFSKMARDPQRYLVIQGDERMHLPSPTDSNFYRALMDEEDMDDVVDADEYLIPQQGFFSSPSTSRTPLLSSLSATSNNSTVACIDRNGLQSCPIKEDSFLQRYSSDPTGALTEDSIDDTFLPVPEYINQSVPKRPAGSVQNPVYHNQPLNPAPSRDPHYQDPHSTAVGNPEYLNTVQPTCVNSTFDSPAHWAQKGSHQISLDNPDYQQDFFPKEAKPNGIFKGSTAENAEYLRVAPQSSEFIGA
T1 sequence (Q00526 whole entry): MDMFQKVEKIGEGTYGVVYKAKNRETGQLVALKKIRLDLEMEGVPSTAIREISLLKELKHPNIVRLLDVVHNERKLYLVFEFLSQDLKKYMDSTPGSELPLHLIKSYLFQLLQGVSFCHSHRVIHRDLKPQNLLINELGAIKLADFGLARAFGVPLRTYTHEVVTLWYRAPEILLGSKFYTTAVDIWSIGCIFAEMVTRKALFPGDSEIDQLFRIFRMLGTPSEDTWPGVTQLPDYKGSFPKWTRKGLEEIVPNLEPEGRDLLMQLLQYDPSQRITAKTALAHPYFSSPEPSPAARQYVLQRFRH
T1 sequence (P24864 whole entry partner): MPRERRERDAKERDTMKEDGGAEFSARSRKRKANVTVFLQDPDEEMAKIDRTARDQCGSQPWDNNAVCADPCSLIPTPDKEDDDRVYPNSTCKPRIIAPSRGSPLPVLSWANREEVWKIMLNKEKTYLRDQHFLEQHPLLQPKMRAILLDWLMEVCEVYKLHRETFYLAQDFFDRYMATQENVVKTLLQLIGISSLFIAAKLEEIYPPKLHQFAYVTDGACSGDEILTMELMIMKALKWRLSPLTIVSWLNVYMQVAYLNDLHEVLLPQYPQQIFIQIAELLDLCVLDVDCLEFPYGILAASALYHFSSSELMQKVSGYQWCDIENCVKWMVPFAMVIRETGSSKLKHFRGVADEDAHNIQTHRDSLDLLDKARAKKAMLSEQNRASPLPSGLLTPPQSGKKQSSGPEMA

Cn1ncc(Cl)c1-c1cc(C(=O)N[C@H](CN)Cc2cccc(F)c2)sc1Cl [GSK2110183]
inhibition at 0.5 µM [1]: 0% | inhibition at 10 µM [1]: 20% | inhibition at 0.5 µM [2]: 1% | inhibition at 10 µM [2]: 6% | inhibition at 0.5 µM [3]: -4% | inhibition at 10 µM [3]: 2% | hematological cell lines sensitive (EC50<1 µM) ([4]; 112 cell lines, 3 days, CTG): 65% | pIC50 ([4]; 1A2, 1A2 cell line, Burkitt's Lymphoma, B Cell): 6.98 | pIC50 ([4]; 697 cell line, ALL, pre-B Cell): 6.13 | pIC50 ([4]; ARH-77, ARH77 cell line, Multiple Myeloma, B Cell): 6.50 | pIC50 ([4]; B-cell, BDCM cell line, AML, B Cell): 7.59 | pIC50 ([4]; B-cell, CESS cell line, AML, B Cell): 6.32 | pIC50 ([4]; B-cell, HKB-11 cell line, Burkitt's Lymphoma, B Cell): 6.78 | pIC50 ([4]; B-cell, HS-Sultan cell line, Burkitt's Lymphoma, B Cell): 6.19 | pIC50 ([4]; B-cell, KARPAS-231 cell line, ALL, B Cell): 6.92 | pIC50 ([4]; B-cell, MN60 cell line, ALL, B Cell): 5.72 | pIC50 ([4]; B-cell, Namalwa cell line, Burkitt's Lymphoma, B Cell): 6.04 | pIC50 ([4]; B-cell, SD-1 cell line, ALL, B Cell): 8.00 | pIC50 ([4]; B-cell, Tanoue cell line, ALL, B Cell): 5.98 | pIC50 ([4]; BC1, BC1 cell line, Burkitt's Lymphoma, B Cell): 5.68 | pIC50 ([4]; BC-3, BC3 cell line, Burkitt's Lymphoma, B Cell): 4.79 | pIC50 ([4]; BV-173, BV173 cell line, CML, pre-B Cell): 5.92 | pIC50 ([4]; CA46, CA46 cell line, Burkitt's Lymphoma, B Cell): 5.63 | pIC50 ([4]; CCRF-CEM, CCRFCEM cell line, ALL, T Cell): 6.43 | pIC50 ([4]; CCRF-SB, CCRFSB cell line, ALL, B Cell): 7.25 | pIC50 ([4]; CEM/C1, CEM/C1 cell line, ALL, T Cell): 6.96 | pIC50 ([4]; CEM/C2, CEM/C2 cell line, ALL, T Cell): 7.32 | pIC50 ([4]; CML-T1, CML-T1 cell line, CML, T Cell): 5.29 | pIC50 ([4]; CRO-AP5, CRO-AP5 cell line, Primary Effusion Lymphoma (PEL), B Cell): 7.17 | pIC50 ([4]; DB, DB cell line, Non-Hodgkin's Lymphoma, B Cell): 5.20 | pIC50 ([4]; DG-75, DG75 cell line, Burkitt's Lymphoma, B Cell): 4.83 | pIC50 ([4]; DOHH-2, DOHH-2 cell line, Non-Hodgkin's Lymphoma, B Cell): 7.42 | pIC50 ([4]; Daudi, DAUDI cell line, Burkitt's Lymphoma, B Cell): 6.36 | pIC50 ([4]; EB1, EB1 cell line, Burkitt's Lymphoma, B Cell): 6.96 | pIC50 ([4]; EB2, EB2 cell line, Burkitt's Lymphoma, B Cell): 6.20 | pIC50 ([4]; EB-3, EB3 cell line, Burkitt's Lymphoma, B Cell): 5.53 | pIC50 ([4]; EM-2, EM2 cell line, CML, Unspecified): 5.91 | pIC50 ([4]; GA-10, GA-10 cell line, Burkitt's Lymphoma, B Cell): 6.63 | pIC50 ([4]; GDM-1, GDM-1 cell line, AML, Monoblast): 5.55 | pIC50 ([4]; HD-MY-Z cell line, Hodgkin's Lymphoma, Unspecified): 5.04 | pIC50 ([4]; HEL 92.1.7, HEL92.1.7 cell line, AML, Erythroleukemia): 4.85 | pIC50 ([4]; HH, HH cell line, Non-Hodgkin's Lymphoma (CTCL), T Cell): 6.52 | pIC50 ([4]; HL-60, HL-60 cell line, AML, Myeloblast): 5.59 | pIC50 ([4]; HSB2, HSB2 cell line, ALL, T Cell): 5.27 | pIC50 ([4]; HT, HT cell line, Burkitt's Lymphoma, B Cell): 6.69 | pIC50 ([4]; HuT78, HuT78 cell line, Non-Hodgkin's Lymphoma (CTCL), T Cell): 6.26 | pIC50 ([4]; J.gamma1, J.Gamma-1 cell line, ALL, T Cell): 7.24 | pIC50 ([4]; JIYOYE, JIYOYE cell line, Burkitt's Lymphoma, B Cell): 5.73 | pIC50 ([4]; JM1, JM1 cell line, Burkitt's Lymphoma, pre-B Cell): 6.12 | pIC50 ([4]; Jurkat, Jurkat cell line, ALL, T Cell): 7.55 | pIC50 ([4]; K562, K562 cell line, CML, Lymphoblast): 5.35 | pIC50 ([4]; KG-1, KG-1 cell line, AML, B Cell): 7.21 | pIC50 ([4]; KU812, Ku812 cell line, CML, Basophilic Leukocyte): 6.73 | pIC50 ([4]; Kasumi 1, Kasumi-1 cell line, AML, Myeloblast): 6.88 | pIC50 ([4]; Kasumi-2 cell line, AML, Myeloblast): 6.00 | pIC50 ([4]; L-428, L428 cell line, Hodgkin's Lymphoma, Unspecified): 8.87 | pIC50 ([4]; MC116, MC116 cell line, Burkitt's Lymphoma, B Cell): 5.97 | pIC50 ([4]; MEG-01, MEG01 cell line, CML, Megakaryoblastic): 5.21 | pIC50 ([4]; MHH-CALL-3 cell line, ALL, pre-B Cell): 5.91 | pIC50 ([4]; MHH-PREB-1, MHH-PREB-1 cell line, Non-Hodgkin's Lymphoma, B Cell): 5.72 | pIC50 ([4]; ML-2, ML-2 cell line, AML, Myelomonocytic): 6.01 | pIC50 ([4]; MOLT-3, MOLT3 cell line, ALL, T Cell): 7.21 | pIC50 ([4]; MOLT-4, Molt-4 cell line, ALL, T Cell): 7.85 | pIC50 ([4]; MOLT-16, MOLT16 cell line, ALL, T Cell): 6.32 | pIC50 ([4]; MV4-11, MV-4-11 cell line, AML, Myelomonocytic): 5.90 | pIC50 ([4]; NALM-6, Nalm-6 cell line, ALL, pre-B Cell): 6.45 | pIC50 ([4]; NC-37, NC-37 cell line, Burkitt's Lymphoma, B Cell): 5.75 | pIC50 ([4]; NOMO-1, Nomo-1 cell line, AML, B Cell): 6.98 | pIC50 ([4]; NU-DHL-1, NU-DHL-1 cell line, Burkitt's Lymphoma, B Cell): 7.19 | pIC50 ([4]; OCI-AML2, OCI-AML-2 cell line, AML, B Cell): 4.99 | pIC50 ([4]; OCI-AML-3, OCI-AML-3 cell line, AML, B Cell): 6.95 | pIC50 ([4]; OCI-M1, OCI-M1 cell line, AML, B Cell): 5.95 | pIC50 ([4]; P3HR-1, P3HR-1 cell line, Burkitt's Lymphoma, B Cell): 7.16 | pIC50 ([4]; PLB-985, PLB985 cell line, AML, B Cell): 5.52 | pIC50 ([4]; Pfeiffer, Pfeiffer cell line, Non-Hodgkin's Lymphoma, B Cell): 7.89 | pIC50 ([4]; RCH-ACV cell line, ALL, pre-B Cell): 6.18 | pIC50 ([4]; RCK8, RC-K8 cell line, Non-Hodgkin's Lymphoma (Histiocytic), B Cell): 5.27 | pIC50 ([4]; REH, Reh cell line, ALL, pre-B Cell): 6.53 | pIC50 ([4]; RL, RL cell line, Non-Hodgkin's Lymphoma, B Cell): 6.65 | pIC50 ([4]; RPMI-6666, RPMI 6666 cell line, Hodgkin's Lymphoma, Lymphoblast): 6.87 | pIC50 ([4]; RS4-11, RS4;11 cell line, ALL, B Cell): 6.27 | pIC50 ([4]; Raji, Raji cell line, Burkitt's Lymphoma, B Cell): 5.18 | pIC50 ([4]; Rec1, REC-1 cell line, Non-Hodgkin's Lymphoma, B Cell): 5.43 | pIC50 ([4]; SC-1, SC1 cell line, Burkitt's Lymphoma, B Cell): 5.67 | pIC50 ([4]; SEM cell line, ALL, pre-B Cell): 6.46 | pIC50 ([4]; SKO-007, SKO-007 cell line, Multiple Myeloma, B Cell): 5.17 | pIC50 ([4]; SR, SR cell line, Non-Hodgkin's Lymphoma, Lymphoblast): 5.60 | pIC50 ([4]; ST486, ST486 cell line, Burkitt's Lymphoma, B Cell): 5.61 | pIC50 ([4]; SU-DHL10, SU-DHL-10 cell line, Non-Hodgkin's Lymphoma, B Cell): 6.76 | pIC50 ([4]; SU-DHL-4, SU-DHL-4 cell line, Non-Hodgkin's Lymphoma, B Cell): 6.94 | pIC50 ([4]; SU-DHL-5, SU-DHL-5 cell line, Non-Hodgkin's Lymphoma, B Cell): 6.82 | pIC50 ([4]; SU-DHL-6, SU-DHL-6 cell line, Non-Hodgkin's Lymphoma, B Cell): 7.20 | pIC50 ([4]; SU-DHL-16, SU-DHL-16 cell line, Non-Hodgkin's Lymphoma, B Cell): 7.21 | pIC50 ([4]; SUP-B15, SUP B15 cell line, ALL, B Cell): 5.71 | pIC50 ([4]; T-cell, 8E5 cell line, ALL, T Cell): 7.37 | pIC50 ([4]; T-cell, CEM/C3 cell line, ALL, T Cell): 7.46 | pIC50 ([4]; T-cell, I2.1 cell line, ALL, T Cell): 7.32 | pIC50 ([4]; T-cell, J.Cam.1.6 cell line, ALL, T Cell): 6.96 | pIC50 ([4]; T-cell, J.RT-T3.5 cell line, ALL, T Cell): 7.27 | pIC50 ([4]; T-cell, JR45.01 cell line, ALL, T Cell): 7.48 | pIC50 ([4]; T-cell, LOUCY cell line, ALL, T Cell): 7.20 | pIC50 ([4]; T-cell, MJ cell line, Non-Hodgkin's Lymphoma (CTCL), T Cell): 5.33 | pIC50 ([4]; T-cell, SUPTI(VB) cell line, ALL, T Cell): 6.70 | pIC50 ([4]; TO 175.T, TO 175.T cell line, Hodgkin's Lymphoma, Unspecified): 5.07 | pIC50 ([4]; Toledo, Toledo cell line, Non-Hodgkin's Lymphoma, B Cell): 5.94 | pIC50 ([4]; U-937, U937 cell line, Non-Hodgkin's Lymphoma (Histiocytic), Monocyte): 7.59
